Measurements taken from patent US20240246920A1, “TRIAZOLE DERIVATIVES WITH ANTIFUNGAL ACTIVITY” (King's College London, priority 2020, published 2024).
≈ marks a conversion by molar mass, not a printed value. Where two headings read alike, the source gives them in different places.

Experiments:
panel of Candida species = assay: Candida panel MIC, statements on the whole panel; type: cell-based; conditions: in words
Procedure: (§1) The minimum inhibitory concentration of test compounds were determined in a panel of Candida species (see Table 4 below), using the a serial dilution method in 96-well plates using the following protocol.
(§2) Starter cultures of fungal strains to be tested were grown in 3 mL of RPMI 2% glucose media incubated at 37° C. with shaking at 200 rpm overnight. The culture media used was 900 mL H2O; 10.4 g RPMI 1640 (with L-glutamine and a pH indicator but without bicarbonate); 34.5 g MOPS and 18 g glucose. The pH of the media was adjusted to 7.0 with 1 M sodium hydroxide.
(§3) Solutions of the compound to be tested were prepared by dissolving the compound in DMSO and subsequently into media to the desired concentrations. 200 μL of compound solution was then added to the wells of the 96-well plate using a serial dilution method row-by row of the plate to give a compound concentration gradient across the plate of from 128 μg/mL to 0.25 μg/mL. The last two rows of each plate were control rows containing the culture media alone and the media plus fungi.
(§4) The fungi starter cultures were diluted 1:10 in water in cuvettes. This was then further diluted to an optical density (OD600) of 0.01 in media. 100 μL of the fungi was added to each well giving a starting concentration of fungus of 0.5-5×10^5/mL. One species of fungus was used on each plate. The plates were then held at 37° C. for 24 hours.
(§5) A plate reader was used to measure growth in each well at OD530 nm and the MIC was determined for each test compound. The MIC is defined as the lowest concentration giving rise to inhibition of ≥50% of that of the drug-free control well containing the fungus and media.

C. auris 8984 = assay: Candida panel MIC, serial dilution in 96-well plates; type: cell-based, Candida auris; conditions: Candidozyma auris, 8984; Table 4, extended panel; 24 hours, ≥50% inhibition; read-out: MIC C. auris 8984
In short: (§6)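 Starter cultures grown overnight at 37° C in RPMI 1640/MOPS/2% glucose, pH 7.0; inoculum 0.5-5×10^5/mL with compound serially diluted from DMSO into media.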

C. auris 8977 = assay: as above; type: cell-based, Candida auris; conditions: Candidozyma auris, 8977; Table 4, extended panel; 24 hours, ≥50% inhibition; read-out: MIC C. auris 8977
In short: as §6

C. auris 8971 = assay: as above; type: cell-based, Candida auris; conditions: Candidozyma auris, 8971; Table 4, extended panel; 24 hours, ≥50% inhibition; read-out: MIC C. auris 8971
In short: as §6

C. glabrata NCPF8018 = assay: as above; type: cell-based, Candida glabrata; conditions: Nakaseomyces glabratus
In short: (§7)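 MIC taken as lowest concentration inhibiting growth ≥50% relative to drug-free control, from OD530 after 24 hours at 37° C. Fungi at 0.5-5×10^5/mL were exposed to serially diluted compound in RPMI 1640/MOPS/2% glucose medium adjusted to pH 7.0.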

Candida auris TDG2211 = assay: microbe, parasite or virus in culture; type: cell-based; conditions: Candidozyma auris, TDG2211; Table 4, extended panel; 24 hours, ≥50% inhibition; read-out: MIC Candida auris TDG2211
In short: as §6

Candida auris TDG2506 = assay: microbe, parasite or virus in culture; type: cell-based; conditions: Candidozyma auris, TDG2506; Table 4, extended panel; 24 hours, ≥50% inhibition; read-out: MIC Candida auris TDG2506
In short: as §6

C. albicans NCPF3281 = assay: Candida panel MIC, serial dilution in 96-well plates; type: cell-based, Candida albicans; conditions: NCPF3281, read-out: MIC C. albicans NCPF3281
In short: (§8)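 Broth microdilution in RPMI 1640 with 2% glucose and MOPS at pH 7.0, compound 128 to 0.25 μg/mL, inoculum 0.5-5×10^5/mL. Incubation 24 h at 37 °C. MIC is the lowest concentration giving ≥50% growth inhibition versus drug-free control, read at OD530.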

C. parapsilosis NCPF3209 = assay: microbe, parasite or virus in culture; type: cell-based, Candida parapsilosis; conditions: Lodderomyces parapsilosis
In short: as §7

C. krusei NCPF3876 = assay: microbe, parasite or virus in culture; type: cell-based, Candida krusei; conditions: Pichia kudriavzevii
In short: as §7

Candida auris TDG1102 = assay: Candida panel MIC, serial dilution in 96-well plates; type: cell-based; conditions: Candidozyma auris, TDG1102; Table 4, extended panel; 24 hours, ≥50% inhibition; read-out: MIC Candida auris TDG1102
In short: as §8

C. auris TDG1912 = assay: as above; type: cell-based; conditions: Candidozyma auris, TDG1912; Table 4; 24 hours, ≥50% inhibition; read-out: MIC C. auris TDG1912
In short: as §8

C. tropicalis NCPF8760 = assay: as above; type: cell-based
In short: as §8

Candida auris TDG2512 = assay: as above; type: cell-based; conditions: Candidozyma auris, TDG2512; Table 4, extended panel; 24 hours, ≥50% inhibition; read-out: MIC Candida auris TDG2512
In short: as §8

C. albicans 3990 = assay: Candida albicans panel MIC; type: cell-based; conditions: Table 6, Candida albicans panel
Procedure: as §1, §2, §3, §4, §5
(§9) The compounds shown in Table 6 were tested against a further panel of Candida albicans.

C. albicans 3645 = assay: Candida albicans panel MIC; type: cell-based; conditions: Table 6, Candida albicans panel
Procedure: as §1, §2, §3, §4, §5, §9

C. albicans 8112 = assay: Candida albicans panel MIC; type: cell-based; conditions: Table 6, Candida albicans panel
Procedure: as §1, §2, §3, §4, §5, §9

C. albicans 3880 = assay: Candida albicans panel MIC; type: cell-based; conditions: Table 6, Candida albicans panel
Procedure: as §1, §2, §3, §4, §5, §9

C. albicans 3363 = assay: Candida albicans panel MIC; type: cell-based; conditions: Table 6, Candida albicans panel
Procedure: as §1, §2, §3, §4, §5, §9

C. albicans 3881 = assay: Candida albicans panel MIC; type: cell-based; conditions: Table 6, Candida albicans panel
Procedure: as §1, §2, §3, §4, §5, §9

C. albicans 3882 = assay: Candida albicans panel MIC; type: cell-based; conditions: Table 6, Candida albicans panel
Procedure: as §1, §2, §3, §4, §5, §9

[1] = NCPF8018, read-out: MIC C. Glabrata NCPF8018
[2] = NCPF8018, Table 4, common panel, 24 hours, ≥50% inhibition, read-out: MIC C. glabrata NCPF8018
[3] = Candida albicans, Table 4, common panel, 24 hours, ≥50% inhibition
[4] = NCPF3209, read-out: MIC C. Parapsilosis NCPF3209
[5] = NCPF3209, Table 4, common panel, 24 hours, ≥50% inhibition, read-out: MIC C. parapsilosis NCPF3209
[6] = NCPF3876, read-out: MIC C. Krusei NCPF3876
[7] = NCPF3876, Table 4, common panel, 24 hours, ≥50% inhibition, read-out: MIC C. krusei NCPF3876
[8] = NCPF8760, Table 4, common panel, 24 hours, ≥50% inhibition, read-out: MIC C. tropicalis NCPF8760
[9] = NCPF8760, read-out: MIC C. Tropicalis NCPF8760
[10] = Table 6, Candida albicans panel

| Structure (SMILES) | Activity against Candida auris including resistant strains (panel of Candida species) | MIC (C. auris 8984) [µg/mL] | MIC (C. auris 8977) [µg/mL] | MIC (C. auris 8971) [µg/mL] | MIC (C. glabrata NCPF8018; [1]) [µg/mL] | MIC (C. glabrata NCPF8018; [2]) [µg/mL] | MIC (Candida auris TDG2211) [µg/mL] | MIC (Candida auris TDG2506) [µg/mL] | MIC (C. albicans NCPF3281; [3]) [µg/mL] | MIC (C. parapsilosis NCPF3209; [4]) [µg/mL] | MIC (C. parapsilosis NCPF3209; [5]) [µg/mL] | MIC (C. krusei NCPF3876; [6]) [µg/mL] | MIC (C. krusei NCPF3876; [7]) [µg/mL] | MIC (Candida auris TDG1102) [µg/mL] | MIC (C. auris TDG1912) [µg/mL] | MIC (C. tropicalis NCPF8760; [8]) [µg/mL] | MIC (C. tropicalis NCPF8760; [9]) [µg/mL] | MIC (Candida auris TDG2512) [µg/mL] | MIC (C. albicans 3990) [µg/mL] | MIC (C. albicans 3645) [µg/mL] | further results |
| --- | --- | --- | --- | --- | --- | --- | --- | --- | --- | --- | --- | --- | --- | --- | --- | --- | --- | --- | --- | --- | --- |
| Cc1ccc(-c2ccc(NC3CCN(CC(O)(Cn4cncn4)c4ccc(F)cc4F)CC3)cc2)cc1 (stereo not shown) [Example 3, 2-(2,4-Difluorophenyl)-1-(4-((4′-methyl-[1,1′-biphenyl]-4-yl)amino)piperidin-1-yl)-3-(1H-1,2,4-triazol-1-yl)propan-2-ol] | highly active | 0.006 (≈ 0.0119 µM) | 0.006 (≈ 0.0119 µM) | 0.006 (≈ 0.0119 µM) | 0.125 (≈ 0.248 µM) | 0.125 (≈ 0.248 µM) | 0.006 (≈ 0.0119 µM) | 0.006 (≈ 0.0119 µM) | ≤ 0.00098 | 0.004 (≈ 0.00794 µM) | 0.004 (≈ 0.00794 µM) | 0.004 to 0.016 (≈ 0.00794 to 0.0318 µM) | 0.004 to 0.016 (≈ 0.00794 to 0.0318 µM) | ≤ 0.003 | 0.008 to 0.06 (≈ 0.0159 to 0.119 µM) | 0.015 (≈ 0.0298 µM) | 0.015 (≈ 0.0298 µM) | ≤ 0.003 |  |  |  |
| OC(CN1CCC(N2CCC(Nc3ccc(Cc4ccccc4)cc3)CC2)CC1)(Cn1cncn1)c1ccc(F)cc1F (stereo not shown) [Example 12, 1-(4-((4-benzylphenyl)amino)-[1,4′-bipiperidin]-1′-yl)-2-(2,4-difluorophenyl)-3-(1H-1,2,4-triazol-1-yl)propan-2-ol] |  | ≤ 0.125 | ≤ 0.125 | ≤ 0.125 | 0.25 (≈ 0.426 µM) | 0.125 (≈ 0.213 µM) | ≤ 0.125 | ≤ 0.125 | ≤ 0.125 | ≤ 0.125 | ≤ 0.125 | ≤ 0.125 | ≤ 0.125 | ≤ 0.125 | 0.125 (≈ 0.213 µM) | ≤ 0.125 | ≤ 0.125 | ≤ 0.125 | 0.0313 (≈ 0.0533 µM) | 0.00391 (≈ 0.00666 µM) | MIC (C. albicans 8112): 0.00391 µg/mL (≈ 0.00666 µM); MIC (C. albicans 3880): 0.0313 µg/mL (≈ 0.0533 µM); MIC (C. albicans 3363): 0.0625 µg/mL (≈ 0.107 µM); MIC (C. albicans 3881): 0.0625 µg/mL (≈ 0.107 µM); MIC (C. albicans 3882): 0.0625 µg/mL (≈ 0.107 µM); MIC (C. albicans NCPF3281; [10]): 0.002 to 0.004 µg/mL (≈ 0.00341 to 0.00682 µM) |
| OC(CN1CCC2(CCC(Nc3ccc(Cc4ccccc4)cc3)CC2)C1)(Cn1cncn1)c1ccc(F)cc1F (stereo not shown) [Example 13, 1-(8-((4-benzylphenyl)amino)-2-azaspiro[4.5]decan-2-yl)-2-(2,4-difluorophenyl)-3-(1H-1,2,4-triazol-1-yl)propan-2-ol] |  | ≤ 0.125 | ≤ 0.125 | ≤ 0.125 |  | 0.25 (≈ 0.448 µM) | ≤ 0.125 | ≤ 0.125 | ≤ 0.125 |  | ≤ 0.125 |  | ≤ 0.125 | ≤ 0.125 | 0.25 (≈ 0.448 µM) | ≤ 0.125 |  | ≤ 0.125 | 0.0625 (≈ 0.112 µM) | 0.00781 (≈ 0.014 µM) | MIC (C. albicans 8112): 0.00049 to 0.00391 µg/mL (≈ 0.000879 to 0.00701 µM); MIC (C. albicans 3880): 0.25 µg/mL (≈ 0.448 µM); MIC (C. albicans 3363): 0.125 µg/mL (≈ 0.224 µM); MIC (C. albicans 3881): 0.25 µg/mL (≈ 0.448 µM); MIC (C. albicans 3882): 0.0313 to 2 µg/mL (≈ 0.0561 to 3.59 µM); MIC (C. albicans NCPF3281; [10]): ≤ 0.00098 µg/mL |
| COc1ccc(-c2ccc(NC3CCN(CC(O)(Cn4cncn4)c4ccc(F)cc4F)CC3)cc2)cc1 (stereo not shown) [Example 4, 2-(2,4-difluorophenyl)-1-(4-((4′-methoxy-[1,1′-biphenyl]-4-yl)amino)piperidin-1-yl)-3-(1H-1,2,4-triazol-1-yl)propan-2-ol] | highly active |  |  |  |  |  | 0.006 (≈ 0.0115 µM) | ≤ 0.003 | 0.008 (≈ 0.0154 µM) |  | 0.004 (≈ 0.0077 µM) |  | 0.004 to 0.125 (≈ 0.0077 to 0.241 µM) | 0.006 (≈ 0.0115 µM) | 0.06 (≈ 0.115 µM) | 0.25 (≈ 0.481 µM) |  | ≤ 0.003 |  |  |  |
| N#Cc1ccccc1-c1ccc(NC2CCN(CC(O)(Cn3cncn3)c3ccc(F)cc3F)CC2)cc1 (stereo not shown) [Example 5, 4′-((1-(2-(2,4-difluorophenyl)-2-hydroxy-3-(1H-1,2,4-triazol-1-yl)propyl)piperidin-4-yl)amino)-[1,1′-biphenyl]-2-carbonitrile] | highly active |  |  |  |  | 0.125 (≈ 0.243 µM) | 0.006 (≈ 0.0117 µM) | 0.006 (≈ 0.0117 µM) | 0.002 to 0.004 (≈ 0.00389 to 0.00777 µM) |  | 0.004 (≈ 0.00777 µM) |  | 0.002 to 0.125 (≈ 0.00389 to 0.243 µM) | ≤ 0.003 | 0.03 (≈ 0.0583 µM) | 0.008 to 0.25 (≈ 0.0155 to 0.486 µM) |  | ≤ 0.003 |  |  |  |
